Assay results published in patent US9642854B2, “Flavanoid compounds and process for preparation thereof” (Council of Scientific & Industrial Research, priority 2009, dated 2017).

Columns and labels:
H. pylori [1] = assay: Anti H. pylori screening by disc diffusion susceptibility assay; assay type: cell-based, Helicobacter pylori; conditions: spacer molecules
Protocol: The discs were impregnated with […] of each of the compounds, dissolved either in ethanol or DMSO, and the zone of inhibition was measured after 72 h of growth under microaerophilic conditions at 37° C. Inhibition zone diameter ranging 10-20 mm was given a score of ^+, 20-30 mm as ^++ and that of >30 mm as ^+++, as obtained employing dose range of […]/disc. The detailed structural information of the molecules is provided under ‘Description of the Compounds’.
Methods and protocols for the determination of inhibition zone diameter are as stated under Experiment 1, and that of MIC values by microbroth dilution assay as in Experiment 3. ‘Nil’ means zone of inhibition below 10 mm.
The anti H. pylori activity of all 16 flavonoid molecules, 2 naturally isolated and 14 synthetic derivatives, was screened by disc diffusion sensitivity assay employing 2 clinical strains HP001 and HP002, and three standard strains ATCC® 700392, 43504 and 49503. A 0.5 mL inoculum (10^8 CFU/mL) for each bacterial strain tested was flooded on freshly prepared Brain Heart Infusion (BHI) agar plates supplemented with 7% FCS, 0.5% IsoVitalex and 0.0025% DENT® and the discs (5 mm diameter) containing different compounds or antibiotics (dissolved either in ethanol or DMSO) were placed on the agar surface. After incubation for 3 days in a microaerophilic atmosphere at 37° C., the diameter of the zone of inhibition was measured (Glupczynsky, 1996; McNulty et al., 2002).

H. pylori [2] = assay: MIC and MBC by microbroth dilution assay; assay type: cell-based, Helicobacter pylori; conditions: Helicobacter pylori
Protocol: The compounds, serially diluted ([…]) in Muller Hinton broth containing 5% FCS, were incubated in 96-well microtitre plate containing fresh cultures of HP001 (˜5.5×10^6 CFU/mL) or ATCC® 43504 (2.65×10^6 CFU/ml) in a final volume of […]. After 72-h of incubation under microaerophilic condition at 37° C., […] of cultures wherein no growth had been detected were streaked on fresh brain heart infusion agar plates for MBC determination.
In microbroth dilution assay employing one clinical and one standard strain, both the bacteriostatic and the bactericidal values were determined for all four compounds as well as for clarithromycin (Table 4). Two-fold serial dilutions were prepared in 96-well microtitre plate containing a total volume of 0.1 mL Mueller Hinton broth supplemented with 5% FCS. A 3-day old liquid culture was diluted 10 times in Mueller Hinton broth and 0.1 mL of these cultures was inoculated into each well to give a final concentration of ˜10^6 CFU/mL. The plates were incubated for 3 days in a microaerophilic atmosphere at 37° C. Following incubation, the plates were examined visually, and the lowest concentration showing complete inhibition of growth was recorded as the MIC of the respective compound (Hachem et al., 1996). Aliquots (0.1 mL) of 72-h culture in which no growth had been detected were taken from the wells of the above microtitre plates and used to streak on fresh BHI agar plates.

[3] = ATCC43504, microbroth dilution, ATCC 43504

Row | MIC (H. pylori [2]; [3]) [µg/mL] | MIC (H. pylori [2]; microbroth dilution, HP001) [µg/mL] | Structure (SMILES) | Inhibition Zone Diameter (mm) (H. pylori [1]; ATCC 43504) | Inhibition Zone Diameter (mm) (H. pylori [1]; HP001)
1 | > 400 | > 400 | CCCN1CCOCC1 [reference compound] | Nil (‘Nil’ means zone of inhibition below 10 mm.) | Nil (‘Nil’ means zone of inhibition below 10 mm.)
2 | > 400 | > 400 | COCCCN1CCOCC1 [reference compound] | Nil (‘Nil’ means zone of inhibition below 10 mm.) | Nil (‘Nil’ means zone of inhibition below 10 mm.)
3 | > 400 | > 400 | CCCN1CCN(C)CC1 [reference compound] | Nil (‘Nil’ means zone of inhibition below 10 mm.) | Nil (‘Nil’ means zone of inhibition below 10 mm.)
4 | > 400 | > 400 | CCCN1CCCCC1 [reference compound] | Nil (‘Nil’ means zone of inhibition below 10 mm.) | Nil (‘Nil’ means zone of inhibition below 10 mm.)
